# B1: BPi: protein found in human white blood cells that binds to and neutralises endotoxin (protein, UniProt P17213 32-487, looked up)
# Bactericidal …: VNPGVVVRISQKGLDYASQQGTAALQKELKRIKIPDYSDSFKIKHLGKGHYSFYSMDIREFQLPSSQISMVPNVGLKFSISNANIKISGKWKAQKRFLKMSGNFDLSIEGMSISADLKLGSNPTSGKPTITCSSCSSHINSVHVHISKSKVGWLIQLFHKKIESALRNKMNSQVCEKVTNSVSSELQPYFQTLPVMTKIDSVAGINYGLVAPPATTAETLDVQMKGEFYSENHHNPPPFAPPVMEFPAAHDRMVYLGLSDYFFNTAGLVYQEAGVLKMTLRDDMIPKESKFRLTTKFFGTFLPEVAKKFPNMKIQIHVSASTPPHLSVQPTGLTFYPAVDVQAFAVLPNSSLASLFLIGMHTTGSMEVSAESNRLVGELKLDRLLLELKHSNIGPFPVELLQDIMNYIVPILVLPRVNEKLQKGFPLPTPARVQLYNVVLQPHQNFLLFGADVVYK
# B2: LBP: serum protein which binds to LPS; recombinant LBP produced in the lab of Dr. Schumann (protein, UniProt P18428 26-481, looked up)
# Lipopolysaccharide-binding …: ANPGLVARITDKGLQYAAQEGLLALQSELLRITLPDFTGDLRIPHVGRGRYEFHSLNIHSCELLHSALRPVPGQGLSLSISDSSIRVQGRWKVRKSFFKLQGSFDVSVKGISISVNLLLGSESSGRPTVTASSCSSDIADVEVDMSGDLGWLLNLFHNQIESKFQKVLESRICEMIQKSVSSDLQPYLQTLPVTTEIDSFADIDYSLVEAPRATAQMLEVMFKGEIFHRNHRSPVTLLAAVMSLPEEHNKMVYFAISDYVFNTASLVYHEEGYLNFSITDDMIPPDSNIRLTTKSFRPFVPRLARLYPNMNLELQGSVPSAPLLNFSPGNLSVDPYMEIDAFVLLPSSSKEPVFRLSVATNVSATLTFNTSKITGFLKPGKVKVELKESKVGLFNAELLEALLNYYILNTFYPKFNDKLAEGFPLPLLKRVQLYDLGLQIHKDFLFLGANVQYMRV
# Legend:
# [1] = tested on: LPS-mediated TNF and IL6 production in whole blood; test: LPS-stimulated cytokine production in whole blood of healthy control subjects (Milenia whole blood assay); assay type: cell-based, human; details: LPS 50 pg/ml
# Description: We have tested the ability of ursodeoxycholic acid (UDCA, FALK Pharma GmbH) to inhibit LPS-mediated TNF production in whole blood of healthy control subjects. Methods: Heparinized whole blood was diluted 1:10 with medium+/-LPS (50 pg/ml), +/-BPI (1 μg/ml), and +/-UDCA ([…]) according to the manufactorer's recommendation ([…] whole blood assay; DPC Biermann, Bad Nauheim, Germany) and incubated for 4 hours at 37° C. In the supernatant, we assessed concentrations of TNF and IL-6 using the semiautomated Immulite system (DPC-Biermann, Bad Nauheim, Germany).
# [2] = tested on: LPS-mediated TNF and IL6 production in whole blood; test: LPS-stimulated cytokine production in whole blood of patients with cachexia due to liver cirrhosis (in vitro application); assay type: cell-based, human; details: 1 mg/ml UDCA, LPS 50 pg/ml, 4 hours
# Description: We have tested the ability of ursodeoxycholic acid (UDCA, FALK Pharma GmbH) and BPi to inhibit LPS-mediated TNF production in whole blood of patients with cachexia.
# (§1) We studied 4 patients with cachexia due to liver cirrhosis. The patients had all weight loss >7.5% compared to their previous normal weight. […] All patients were studied twice on 2 subsequent days (day “−1” and day “0”), see FIG. 9 to 12.
# (§2) Methods: Heparinized whole blood was diluted 1:10 with medium+/−LPS (50 pg/ml), +/−BPI (1 μg/ml), and +/−UDCA (1 μg/ml-1 mg/ml) according to the manufactorer's recommendation (Milenia whole blood assay; DPC Biermann, Bad Nauheim, Germany) and incubated for 4 hours at 37° C. In the supernatant, we assessed concentrations of TNF and IL-6 using the semiautomated Immulite system (DPC-Biermann, Bad Nauheim, Germany).
# [3] = tested on: monocyte generated cytokine production in response to LPS; details: in the concentrations used; Greve et al. Hepatology 1989; cited from earlier work
# [4] = tested on: spontaneous production of TNF and IL6 of whole blood; test: Spontaneous production of TNF and IL6 in whole blood of patients with cachexia due to liver cirrhosis; assay type: cell-based, human; details: BPi 1 μg/ml, 8 experiments, p<0.05
# Description: as §1, §2
# [5] = tested on: LPS effects; details: high concentrations of LBP; cited from earlier work
# [6] = tested on: LPS effects; details: high concentrations of LBP, as seen during the acute phase response; cited from earlier work
# [7] = tested on: LPS-induced TNF synthesis in monocytes; test: LPS-induced TNF synthesis in monocytes with pre-incubated serum; assay type: cell-based, human
# Description: LPS-induced cytokine synthesis can be inhibited by serum lipoproteins. However, this is not easily seen experimentally, as it needs a certain pre-incubation procedure (18 hours at 37° C.) that we developed in our laboratory.
# Methodology for example 4, 5, 7, and 8: TNF assessment: ELISA established in the laboratory of Dr. Schumann using 2 monoclonal antibodies (Pharmingen Inc., USA). Recombinant LBP: produced in the lab of Dr. Schumann. Lipoproteins: isolated from sera of healthy young volunteers, isolated by density gradient centrifugation, monocytes isolated also from blood of healthy young volunteers
# Again, serum lacking lipoproteins was unable to block LPS-induced TNF synthesis. The ability to block LPS-induced TNF synthesis could be restored by addition of isolated lipoproteins. […] Methodology as in example 4
# [8] = 100 μg/ml UDCA, whole blood of healthy control subjects, 4 hours
# [9] = 1 mg/ml UDCA, whole blood of healthy control subjects diluted 1:10, 4 hours at 37° C.
molecule,measurement,setting,value
"C[C@H](CCC(=O)O)[C@H]1CC[C@H]2[C@@H]3[C@@H](O)C[C@@H]4C[C@H](O)CC[C@]4(C)[C@H]3CC[C@]12C [UDCA, ursodeoxycholic acid]",reduction of LPS-stimulated IL6 production,[1]; [8],43%
same,reduction of LPS-stimulated TNF production,[1]; [8],68%
same,reduction of LPS-stimulated IL6 production,[1]; [9],> 95%
same,reduction of LPS-stimulated TNF production,[1]; [9],> 95%
same,reduction of LPS-stimulated TNF production (on average),[2]; whole blood of 4 patients with cachexia due to liver cirrhosis,> 99%
same,reduction of LPS-stimulated IL6 production (on average),[2]; whole blood of patients with cachexia due to liver cirrhosis,97%
C[C@H](CCC(=O)O)[C@H]1CC[C@H]2[C@@H]3[C@H](O)C[C@@H]4C[C@H](O)CC[C@]4(C)[C@H]3CC[C@]12C [chenodeoxycholic acid],effectiveness on monocyte generated cytokine production in response to LPS,[3],less effective
B1,spontaneous production of IL6 of whole blood,[4],reduced significantly
same,spontaneous production of TNF of whole blood,[4],reduced significantly
B2,blocking of LPS effects in a murine sepsis model,[5],completely block LPS effects
same,blocking of LPS effects in vitro,[6],completely block LPS effects
same,LPS-stimulated TNF production in a monocyte stimulation system,[7]; high concentrations added to normal serum (containing lipoproteins),reduces LPS-stimulated TNF production
same,inhibition of LPS activity (LPS-induced TNF production),"[7]; titrated into lipoprotein-deficient serum, high levels of LBP",inhibit LPS activity
